Data published in PubChem BioAssay (NCI).
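Following 48 hours of exposure in 96-well plates, responses at five concentrations were used to interpolate endpoints linearly. GI50 is the concentration that inhibits growth by half. TGI denotes the concentration required for complete inhibition of growth.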 Where a SMILES comes first, the peptide text is derived from it. [ ]: non-standard residue; d: D form. The star is where a group is joined. mTyr = N[CH](Cc1cccc(O)c1)C(=O)O; Cbz = O=C(OCc1ccccc1)*; OBn = c1ccc(CO*)cc1

Columns and labels:
Experiment in all cases: NCI tumour cell line growth inhibition, 48 h
A498 renal = test system: A498 renal
HCT-15 colon = test system: HCT-15 colon
OVCAR-8 ovarian = test system: OVCAR-8 ovarian
HOP-92 NSCLC = test system: HOP-92 NSCLC
SK-MEL-28 melanoma = test system: SK-MEL-28 melanoma
HL-60(TB) leukemia = test system: HL-60(TB) leukemia
SF-295 CNS = test system: SF-295 CNS
NCI-H522 lung = test system: NCI-H522 lung
COLO 205 colon = test system: COLO 205 colon
OVCAR-4 ovarian = test system: OVCAR-4 ovarian
U251 CNS = test system: U251 CNS
RXF 393 renal = test system: RXF 393 renal
HT29 colon = test system: HT29 colon
UACC-62 melanoma = test system: UACC-62 melanoma
BT-549 breast = test system: BT-549 breast
DU-145 prostate = test system: DU-145 prostate
MDA-MB-435 = test system: MDA-MB-435

Compound | TGI (A498 renal) [µM] | TGI (HCT-15 colon) [µM] | TGI (OVCAR-8 ovarian) [µM] | TGI (HOP-92 NSCLC) [µM] | TGI (SK-MEL-28 melanoma) [µM] | TGI (HL-60(TB) leukemia) [µM] | TGI (SF-295 CNS) [µM] | TGI (NCI-H522 lung) [µM] | TGI (COLO 205 colon) [µM] | TGI (OVCAR-4 ovarian) [µM] | TGI (U251 CNS) [µM] | TGI (RXF 393 renal) [µM] | TGI (HT29 colon) [µM] | TGI (UACC-62 melanoma) [µM] | TGI (BT-549 breast) [µM] | TGI (DU-145 prostate) [µM] | TGI (MDA-MB-435) [µM] | GI50 (HOP-92 NSCLC) [µM] | GI50 (COLO 205 colon) [µM]
Cc1ccc(CC(C)N)cc1 (configuration not stated) | > 100 | > 100 | > 100 | > 100 | > 100 | > 100 | > 100 | > 100 | > 100 | > 100 | > 100 | > 100 | > 100 | > 100 | – | – | – | – | –
CC(C)(C)OC(=O)NCCC1CN(C(=O)c2ccccc2)c2ccccc21 (configuration not stated) | > 100 | > 100 | 67.8 | 94.6 | 91.2 | – | > 100 | 64.2 | 40 | > 100 | > 100 | 99 | 63.7 | 42.3 | 66.5 | > 100 | 84.7 | – | –
O=C(/C=C/c1csc(-c2ccccc2)n1)NCc1ccc(C(=O)NCc2ccccc2)cc1 | > 100 | > 100 | > 100 | > 100 | > 100 | – | > 100 | > 100 | > 100 | > 100 | > 100 | > 100 | > 100 | > 100 | > 100 | > 100 | > 100 | – | –
CC(C)(CC(O)C#N)/[N+]([O-])=[N+](\[O-])C(C)(C)CC(O)C#N (configuration not stated) | > 100 | 38.5 | > 100 | 41.9 | > 100 | – | > 100 | 35.4 | 31.7 | 81 | > 100 | 35.4 | > 100 | 37.2 | 78.8 | 92.9 | > 100 | – | –
COc1ccc(CSc2ccccc2Cn2cccc2)cc1OC | > 100 | > 100 | > 100 | – | > 100 | > 100 | > 100 | – | > 100 | > 100 | > 100 | – | > 100 | > 100 | > 100 | > 100 | > 100 | – | –
CC(C)(C)c1cc(C2COC(c3cc(C(C)(C)C)c(O)c(C(C)(C)C)c3)CO2)cc(C(C)(C)C)c1O (configuration not stated) | > 100 | > 100 | > 100 | > 100 | > 100 | – | > 100 | > 100 | 96.7 | > 100 | > 100 | > 100 | > 100 | > 100 | > 100 | > 100 | > 100 | – | –
COC(=O)C(Cc1cccc(O)c1)NC(=O)C(CC(=O)OCc1ccccc1)NC(=O)OCc1ccccc1 (configuration not stated) (Cbz-Asp(OBn)-[mTyr]-OMe; configuration not given here) | > 100 | > 100 | > 100 | > 100 | > 100 | > 100 | – | – | > 100 | – | > 100 | > 100 | > 100 | > 100 | > 100 | – | – | – | –
CCOc1ccc(-n2nnc3c(N)nc(N)nc32)cc1 | > 100 | > 100 | > 100 | > 100 | > 100 | – | > 100 | > 100 | > 100 | > 100 | > 100 | – | > 100 | > 100 | > 100 | > 100 | > 100 | – | –
COc1cccc(N2C(=O)C3c4[nH]c5ccc(C)cc5c4C4CCC(C(C)(C)C)CC4C3C2=O)c1 (configuration not stated) | > 10 | > 10 | 5.85 | – | > 10 | 4.21 | > 10 | 5.66 | > 10 | > 10 | > 10 | 9.94 | > 10 | > 10 | – | > 10 | > 10 | – | –
COC(=O)CC1NC(=O)C1C1(C)OCCO1 (configuration not stated) | > 100 | > 100 | > 100 | – | > 100 | > 100 | > 100 | – | > 100 | > 100 | > 100 | > 100 | > 100 | > 100 | – | – | – | – | –
O=C1NC(=S)N(c2ccccc2)C1=O | > 100 | > 100 | > 100 | > 100 | > 100 | > 100 | > 100 | > 100 | > 100 | > 100 | > 100 | > 100 | > 100 | > 100 | – | > 100 | > 100 | – | –
CCNC1=C(NC(=O)CC)C(=O)c2ccccc2C1=O | – | > 100 | > 100 | > 100 | > 100 | > 100 | > 100 | > 100 | > 100 | > 100 | > 100 | > 100 | > 100 | > 100 | > 100 | > 100 | – | – | –
COc1cccc(NC(=O)C(C#N)=C(SC)SC)c1 | > 100 | > 100 | > 100 | > 100 | > 100 | – | > 100 | > 100 | > 100 | > 100 | > 100 | > 100 | > 100 | > 100 | > 100 | – | > 100 | – | –
O=C(N/N=C/c1cc(Cl)cc(Cl)c1O)c1ccccc1O | 40.6 | 15.7 | 13.9 | 19.7 | 25.2 | – | 11.3 | 3.18 | > 100 | – | 18.4 | 4.97 | 26.1 | 3.89 | – | – | – | 3.69 | 11.2
COC(=O)C1=C(C)N2[C@H](C(=O)O)CO[C@@]2(C)[C@H](C(=O)OC)[C@H]1c1cccc([N+](=O)[O-])c1 | > 100 | > 100 | > 100 | > 100 | > 100 | – | > 100 | > 100 | > 100 | > 100 | > 100 | > 100 | > 100 | > 100 | > 100 | > 100 | > 100 | – | –
